Source: patent US5300629A, “Bactericidal and/or bacteriostatic peptides isolated from hemolymph of honeybees” (Plant Genetic Systems, N.V., priority 1987, dated 1994)
Where a SMILES comes first, the peptide text is derived from it.

Assays:
Format in all cases: cell-based
[1] = system: Serratia fonticola ATCC 298449; experiment: Inhibition zone assay; settings: I and B 10 ul, L 5 ug
[2] = system: Streptococcus pyogenes NCTC 8193; experiment: Inhibition zone assay; design: key: --: "-" means that no inhibition has been found; settings: I 10 ul
[3] = system: Haemophilus influenzae NCTC 8465; experiment: Inhibition zone assay; design: key: --: "-" means that no inhibition has been found; settings: I 10 ul
[4] = system: Staphylococcus hominis STH B3; experiment: Inhibition zone assay; design: key: --: "-" means that no inhibition has been found; settings: L 5 ug
[5] = system: Serratia liquefaciens DSM 30125; experiment: Inhibition zone assay; design: key: --: "-" means that no inhibition has been found; settings: I 10 ul, L 5 ug
[6] = system: Agrobacterium radiobacter ATCC 19358; experiment: Inhibition zone assay; design: key: --: "-" means that no inhibition has been found; settings: I and B 10 ul, L 5 ug
[7] = system: Citrobacter freundii ATCC 8090; experiment: Inhibition zone assay; design: key: --: "-" means that no inhibition has been found
[8] = system: Micrococcus lysodeikticus LMG 4050; experiment: Inhibition zone assay; design: key: --: "-" means that no inhibition has been found; settings: I and B 10 ul, L 5 ug
[9] = system: Streptococcus B CDC 55 460; experiment: Inhibition zone assay; design: key: --: "-" means that no inhibition has been found; settings: I 10 ul
[10] = system: Bacillus subtilis NRRL B-237; experiment: Inhibition zone assay; settings: I and B 10 ul, L 5 ug
[11] = system: Rhodococcus terrae ATCC 25594; experiment: Inhibition zone assay; design: key: --: "-" means that no inhibition has been found; settings: I and B 10 ul
[12] = system: Salmonella Montevideo 80/141; experiment: Inhibition zone assay; design: key: --: "-" means that no inhibition has been found; settings: I and B 10 ul
[13] = system: S. cerevisiae; experiment: Growth-inhibition zone assay, first screening
Protocol: (§1) Whole lymph or purified components, resuspended in PBS to a final volume equal to the starting material (heated lymph), was applied in 3 mm wells on agar plates seeded with the test organisms. Antibacterial activity was determined by measuring the growth-inhibition zones (in mm).

[14] = system: D. hansenii; experiment: Growth-inhibition zone assay, first screening
Protocol: as §1

[15] = system: Yersinia enterocolitica PGS C-1106; experiment: Inhibition zone assay; design: key: --: "-" means that no inhibition has been found; settings: * synthetic ApidIa and heattreated immune lymph instead of Bee6 and native immune lymph
[16] = system: Proteus mirabilis AU 87; experiment: Inhibition zone assay; design: key: --: "-" means that no inhibition has been found; settings: I and B 10 ul
[17] = system: Staphylococcus aureus STA 1; experiment: Inhibition zone assay; design: key: --: "-" means that no inhibition has been found; settings: I 10 ul
[18] = system: Bacillus megaterium QMB 1551; experiment: Inhibition zone assay; design: key: --: "-" means that no inhibition has been found; settings: I and B 10 ul, L 5 ug
[19] = system: Salmonella infantis 81/257; experiment: Inhibition zone assay; design: key: --: "-" means that no inhibition has been found; settings: I and B 10 ul
[20] = system: Haemophilus influenzae NCTC 7279; experiment: Inhibition zone assay; design: key: --: "-" means that no inhibition has been found; settings: I and B 10 ul
[21] = system: Pseudomonas fluorescens ATCC 13525; experiment: Inhibition zone assay; design: key: --: "-" means that no inhibition has been found
[22] = system: Clostridia
[23] = system: Enterobacter agglomerans ICPB 3423; experiment: Inhibition zone assay; design: key: --: "-" means that no inhibition has been found
[24] = system: Lactobacillus acidophilus ATCC 4336; experiment: Inhibition zone assay; design: key: --: "-" means that no inhibition has been found; settings: I 10 ul
[25] = system: Salmonella typhimurium ATCC 23565; experiment: Inhibition zone assay; design: key: --: "-" means that no inhibition has been found
[26] = system: Shigella flexneri NCTC 9950; experiment: Inhibition zone assay; design: key: --: "-" means that no inhibition has been found; settings: I and B 10 ul
Protocol: as §1

[27] = system: Clostridium difficile Bart 1924; experiment: Inhibition zone assay; design: key: --: "-" means that no inhibition has been found; settings: I 10 ul
Protocol: as §1

[28] = system: Shigella sonnei CQ26; experiment: Inhibition zone assay; design: key: --: "-" means that no inhibition has been found; settings: I and B 10 ul
Protocol: as §1

[29] = system: Corynebacterium michiganense pv. michiganense NCPPB 1573; experiment: Inhibition zone assay; design: key: --: "-" means that no inhibition has been found
Protocol: as §1

[30] = system: Shigella flexneri CP 87; experiment: Inhibition zone assay; design: key: --: "-" means that no inhibition has been found; settings: I 10 ul
Protocol: as §1

[31] = system: Serratia plymuthica ATCC 183; experiment: Inhibition zone assay; design: key: --: "-" means that no inhibition has been found; settings: I and B 10 ul, L 5 ug
[32] = system: Erwinia carotovora var. carotovora NCPPB 312; experiment: Inhibition zone assay; design: key: --: "-" means that no inhibition has been found
[33] = system: Acinetobacter calcoaceticus MON 108; experiment: Inhibition zone assay; design: key: --: "-" means that no inhibition has been found
[34] = system: Pseudomonas syringae pv. syringae ATCC 19310; experiment: Inhibition zone assay; design: key: --: "-" means that no inhibition has been found
[35] = system: Xanthomonas campestris pv. graminis NCPPB 2700; experiment: Inhibition zone assay; design: key: --: "-" means that no inhibition has been found; settings: I and B 10 ul, L 5 ug
[36] = system: Pseudomonas syringae pv. tabaci NCPPB 1237; experiment: Inhibition zone assay; design: key: --: "-" means that no inhibition has been found; settings: * synthetic ApidIa and heattreated immune lymph instead of Bee6 and native immune lymph

CC[C@H](C)[C@H](NC(=O)[C@H](CCCCN)NC(=O)[C@@H]1CCCN1C(=O)[C@H](CC(N)=O)NC(=O)[C@H](Cc1ccccc1)NC(=O)[C@@H]1CCCN1C(=O)CNC(=O)[C@H](CCC(N)=O)NC(=O)CNC(=O)[C@@H]1CCCN1C(=O)[C@H](Cc1ccccc1)NC(=O)[C@@H](NC(=O)[C@@H]1CCCN1C(=O)[C@H](Cc1ccccc1)NC(=O)[C@@H]1CCCN1C(=O)[C@H](CCCNC(=N)N)NC(=O)[C@H](CCCNC(=N)N)NC(=O)CNC(=O)[C@@H]1CCCN1C(=O)[C@H](CCC(N)=O)NC(=O)[C@@H]1CCCN1C(=O)[C@@H](NC(=O)[C@H](CC(N)=O)NC(=O)[C@@H]1CCCN1C(=O)[C@H](CC(C)C)NC(=O)[C@@H]1CCCN1C(=O)[C@@H](NC(=O)[C@@H](N)Cc1ccc(O)cc1)C(C)C)C(C)C)[C@@H](C)O)C(=O)N[C@@H](CCCCN)C(=O)N[C@@H](Cc1c[nH]c2ccccc12)C(=O)N1CCC[C@H]1C(=O)N[C@@H](CCC(N)=O)C(=O)NCC(=O)N[C@@H](Cc1ccc(O)cc1)C(=O)O [bee 9] (H-YVPLPNVPQPGRRPFPTFPGQGPFNPKIKWPQGY-OH)
4 mm: diameter of growth-inhibition zone [10]
9 mm: diameter of growth-inhibition zone [1]
resistant: susceptibility of eucaryote strain [13] | susceptibility of eucaryote strain [14] | susceptibility, in words [22]
--: diameter of growth-inhibition zone [2] | diameter of growth-inhibition zone [3] | diameter of growth-inhibition zone [4] | diameter of growth-inhibition zone [5] | diameter of growth-inhibition zone [6] | diameter of growth-inhibition zone [7] | diameter of growth-inhibition zone [8] | diameter of growth-inhibition zone [9] | diameter of growth-inhibition zone [11] | diameter of growth-inhibition zone [12] | diameter of growth-inhibition zone [15] | diameter of growth-inhibition zone [16] | diameter of growth-inhibition zone [17] | diameter of growth-inhibition zone [18] | diameter of growth-inhibition zone [19] | diameter of growth-inhibition zone [20] | diameter of growth-inhibition zone [21] | diameter of growth-inhibition zone [23] | diameter of growth-inhibition zone [24] | diameter of growth-inhibition zone [25] | diameter of growth-inhibition zone [26] | diameter of growth-inhibition zone [27] | diameter of growth-inhibition zone [28] | diameter of growth-inhibition zone [29] | diameter of growth-inhibition zone [30] | diameter of growth-inhibition zone [31] | diameter of growth-inhibition zone [32] | diameter of growth-inhibition zone [33] | diameter of growth-inhibition zone [34] | diameter of growth-inhibition zone [35] | diameter of growth-inhibition zone [36]
